According to patent US20210171577A1, “COMBINATORIAL ANTIBIOTIC DERIVATIVES BASED ON SUPRAMOLECULAR STRUCTURES” (priority 2017, published 2021):
Several values for one entry are separate records, joined by “and”; a condition that tells them apart may be missing. Equal values may be shown once. Marks after values point to notes of the source that are not given here.

What was measured:
[1] = system: multiresistant strains of microorganisms and fungi; test: Antimicrobial activity in vitro, collection of multiresistant test strains (summary statements); type: cell-based; details: resistant fungal strains
Escherichia coli IMI2001 [2] = test: Peritonitis/sepsis model in neutropenic NMRI mice, effect over time at 7.5 mg/kg (Example 6); type: in vivo
Description: The objective of this study was to investigate the effectiveness of CPR in vivo after intravenous (iv) administration of a single dose of 7.5 mg/kg. The effect was tested against Escherichia coli IMI2001 in a peritonitis model in neutropenia NMRI mice to avoid the use of mucin, which is commonly used in a mouse peritonitis model. Neutropenia was induced in mice by injection of cyclophosphamide. Administration of meropenem at a dose of 40 mg/kg was included as a positive control group and vehicle administration was included as a negative control group. The number of colonies in peritoneal fluid and blood was determined 2 and 5 hours after administration.
30 female outbred mice NMRI, 2832 grams (Kiev).
Escherichia coli IMI2001 from IMINAMN, Ukraine, Kharkov. Clinical isolate from a human wound from 2013 with multidrug resistance (to ampicillin, ceftazidime, aztreonam, gentamicin, ciprofloxacin).
PPC in Ringer's acetate, pH 6, 1.2 ml, 0.75 mg/ml.
(§1) The introduction of cyclophosphamide to mice. Neutropenia was induced in mice by injection of 0.5 ml of cyclophosphamide solution intraperitoneally 4 days (200 mg/kg) and 1 day (100 mg/kg) before infection.
(§2) Infection of mice. Fresh E. coli AID #172 colonies obtained overnight in an agar plate and 5% horse blood were suspended and diluted in sterile saline to approximately 2×10^6 CFU/ml. One hour before the start of administration (time point 1 h), mice were intraperitoneally infected with 0.5 ml of a suspension of E. coli in the lateral lower quadrant of the abdomen. 2.5 h after administration with significant clinical signs of infection, mice were orally administered 45 μl of neurofen (20 mg ibuprofen per ml, which corresponded to 30 mg/kg) as a painkiller.
Score mice. At each sampling in mice, a clinical assessment of the clinical signs of infection was performed.
The introduction of drugs to mice. The mice were given a single intravenous administration of CPR, meropenem, or excipient into the lateral tail vein for approximately 30 seconds at a time point of 0 h (see Table 6). The dose determination was based on an average body weight of 30 g. Mice with a body weight of 2832 g were injected with 0.30 ml of solution. Mice weighing 2728 g were injected with 0.25 ml of the solution and mice weighing 32.136 g were injected with 0.35 ml of the solution. Mice 17 accidentally injected 0.35 ml, despite the fact that its body weight was 29.5 g.
Fence samples. The number of colonies was determined in blood and peritoneal fluid at 0, 2 and 5 hours after administration according to Table 6.
Mice were anesthetized with CO2+O2 and blood sampling was performed from a section in the axillary region. The mice were sacrificed by cervical dislocation and a total of 2 ml of sterile physiological saline was injected intraperitoneally and a gentle massage of the abdomen was performed, then it was opened and a sample of the fluid was pipetted. Each sample was diluted 10 times in saline and drops of 20 μl were applied to plates with blood agar. All agar plates were incubated for 1822 hours at 35° C. in air.

Escherichia coli IMI2001 [3] = test: Model of hip (femoral) infection with neutropenia in mice (Example 7); type: in vivo, NMRI mice
Description: Introduction The objective of this study was to study the dose response after intravenous (iv) administration of a single dose of CPR in the range of 0.1612 mg/kg. The effect was investigated against E. coli IMI2001 in a model of femoral infection with neutropenia. Administration of meropenem at a dose of 40 mg/kg was included as a positive control group. The number of colonies in the hips was determined 5 hours after administration. The hip infection model is a well-known model for studies of the antimicrobial effect and tissue penetration, as described by S. Gudmundsson & N. Erlensdottir: Handbook of Animal Models of Infection (1999), ed. by O. Zak & M. A. Sande, Academic Press, San Diego, US, and some other publications. See the review by D. Andes & C. Craig: Animal model pharmacokinetics and pharmacodynamics: a critical review. International Journal of Antimicrobial Agents, 19 (4): 261268.
Materials and methods. 40 female outbred mice NMRI, 2530 grams (Kiev, Ukraine). Escherichia coli IMI2001 from IMINAMN, Kharkov, Ukraine. Clinical isolate from a human wound from […] with multidrug resistance (to ampicillin, ceftazidime, aztreonam, gentamicin, ciprofloxacin).
PPC in Ringer's acetate, pH 6, 1.2 mg/ml, 6.0 ml. The solution was stored at 4° C. until use. The analyzes of the compositions used for administration were performed at the end of the phase of the study conducted on live animals, and the following results were obtained in these analyzes.
as §1
Infection of mice. […]
The number of colonies was determined in the hips at 0 and 5 h. […]
Results. The number of colonies was determined at the beginning of administration and 5 hours after administration. […] CFU/ml in the infectious material was determined to be 7.35 log 10, which corresponds to […]. […]

Escherichia coli IMI2001 [4] = test: Neutropenic peritonitis/sepsis model in mice, dose response (Example 5); type: in vivo, NMRI mice
Description: The objective of this study was to study the dose response relationship after intravenous (iv) administration of a single dose of SKPA (CBT) in the range of 0.1612 mg/kg. The effect was investigated against resistant E. coli IMI2001 in a neutropenic peritonitis model. Administration of meropenem at a dose of 40 mg/kg was included as a positive control group. The number of colonies in the blood and peritoneal fluid was determined 5 hours after administration. The mouse peritonitis/sepsis model is a well-known model for antimicrobial activity studies as described by N. FrimodtMoller and J. D.
30 female outbred NMRI mice, 2530 grams (Harlan Scandinavia).
Escherichia coli IMI2001 from IMINAMN, Kharkov, Ukraine. Clinical isolate from a human wound from 2003 with multidrug resistance (to ampicillin, ceftazidime, aztreonam, gentamicin, ciprofloxacin).
ASCA in Ringer's acetate, pH 6, 1.2 mg/ml, 6.0 ml. The solution was stored at 4° C. until use. The analyzes of the compositions used for administration were performed at the end of the phase of the study conducted on live animals, and the following results were obtained in these analyzes.
as §1
as §2, with “IMI2001” for “AID #172”, “Approximately 0.51 hours” for “2.5 h”, “the administration,” for “administration with significant clinical signs of infection, mice were orally administered”, “corresponding” for “which corresponded”, “mg/kg) was orally administered to the mice” for “mg/kg)”
The introduction of drugs to mice. Mice were given a single intravenous administration of CBT, meropenem, or excipient into the lateral tail vein for approximately 30 seconds in a volume of 10 ml/kg at time 0 h (see Table 1). The dose determination was based on an average body weight of 30 g. Mice with a body weight of 2832 g were injected with 0.30 ml of solution. Mice weighing 2728 g were injected with 0.25 ml of the solution and mice weighing 32.136 g were injected with 0.35 ml of the solution.
T indicates time relative to administration. The numbers in the columns of the sampling represent the identification numbers of mice. Clinical scoring of mice. Mice were observed during the study and assigned them scores from 0 to 5 depending on their behavior and clinical signs.
The number of colonies was determined in blood and peritoneal fluid for 0 and 5 hours. Mice were anesthetized with CO2+O2 and blood was taken from an axillary incision into Eppendorf tubes coated with ethylene diamine tetraacetic acid (EDTA). Mice were sacrificed immediately after blood sampling, and a total of 2 ml of sterile physiological saline was administered intraperitoneally and a gentle massage of the abdomen was performed until it was opened and the fluid samples were pipetted. Then, each sample was diluted 10 times in physiological saline and drops of 20 μl were applied to blue agar plates. All agar plates were incubated for 1822 hours at 35° C. in air.
Results. The number of colonies was determined at the beginning of administration and 5 hours after administration. Before the calculations, a log 10 transformation of the CFU count was performed.
Dose response curves (data not shown) were calculated in GraphPad Prism using a sigmoid dose response curve (variable angle). […] The maximum effect of CBT, Emax, was determined as the difference in log CFU in the absence of response and at the maximum response. The lack of response was characterized as the number of colonies at a level determined in mice that were injected with vehicle. […]

[5] = Meropenem 40 mg/kg single iv, 2 h
[6] = Meropenem 40 mg/kg single iv, 5 h
[7] = Meropenem 40 mg/kg single iv, T = 2 h, individual mice
[8] = Meropenem 40 mg/kg single iv, T = 5 h, individual mice
[9] = Meropenem 40 mg/kg single iv, T = 5 h, p < 0.01 vs filler
[10] = Meropenem 40 mg/kg single iv, individual mice, score 0-5

C[C@@H]1[C@H](O)[C@@H](C)/C=C/C=C/C=C/C=C/C=C/C=C/C=C/[C@H](O[C@@H]2O[C@H](C)[C@@H](O)[C@H](N)[C@@H]2O)C[C@@H]2O[C@](O)(C[C@@H](O)C[C@@H](O)[C@H](O)CC[C@@H](O)C[C@@H](O)CC(=O)O[C@H]1C)C[C@H](O)[C@H]2C(=O)O [amphotericin]
antifungal activity [1]: did not exert antifungal activity

C[C@@H](O)[C@H]1C(=O)N2C(C(=O)O)=C(S[C@@H]3CN[C@H](C(=O)N(C)C)C3)[C@H](C)[C@H]12 [Meropenem, meropenem]
Difference in CFU level compared with filler, blood (Escherichia coli IMI2001 [2]; [5]): blood −0.82 log CFU/ml | Difference in CFU level compared with filler, peritoneum (Escherichia coli IMI2001 [2]; [5]): 2 h: peritoneum −1.51 log CFU/ml | Difference in CFU level compared with filler, blood (Escherichia coli IMI2001 [2]; [6]): blood −1.64 log CFU/ml | Difference in CFU level compared with filler, peritoneum (Escherichia coli IMI2001 [2]; [6]): 5 h: peritoneum −1.51 log CFU/ml | log10 CFU Blood (group average) (Escherichia coli IMI2001 [2]; Meropenem 40 mg/kg single iv, T = 2 h): 3.76 log10 CFU | log10 CFU Blood (Escherichia coli IMI2001 [2]; [7]): 3.60 log10 CFU and 3.57 log10 CFU and 4.11 log10 CFU | log10 CFU PF (Escherichia coli IMI2001 [2]; [7]): 4.12 log10 CFU and 3.40 log10 CFU and 4.24 log10 CFU | log10 CFU PF (group average) (Escherichia coli IMI2001 [2]; Meropenem 40 mg/kg single iv, T = 2 h, p < 0.01 vs filler): 3.92 ** log10 CFU | log10 CFU Blood (Escherichia coli IMI2001 [2]; [8]): 3.20 log10 CFU and 2.85 log10 CFU and 3.26 log10 CFU | log10 CFU PF (Escherichia coli IMI2001 [2]; [8]): 4.38 log10 CFU and 4.00 log10 CFU and 4.26 log10 CFU | log10 CFU Blood (group average) (Escherichia coli IMI2001 [2]; [9]): 3.10** log10 CFU | log10 CFU PF (group average) (Escherichia coli IMI2001 [2]; [9]): 4.21 ** log10 CFU | Score T = 2 h (Escherichia coli IMI2001 [2]; [10]): 1 | Score T = 5 h (Escherichia coli IMI2001 [2]; [10]): 0 | significant decrease of CFU compared with filler group (Escherichia coli IMI2001 [2]; meropenem 40 mg/kg, 2 hours after administration): only in the peritoneal fluid | CFU compared with filler group, blood and peritoneal fluid (Escherichia coli IMI2001 [2]; meropenem 40 mg/kg, after 5 hours, p<0.01): significant decrease | log10 CFU, hip, The average (Escherichia coli IMI2001 [3]; Meropenem 40 mg/kg single iv, T = 5 h): 4.25 log10 CFU | log10 CFU, hip (Escherichia coli IMI2001 [3]; Meropenem 40 mg/kg single iv, T = 5 h, individual mice, smallest value of group excluded from average): 4.99 log10 CFU and 3.94 log10 CFU | CFU compared with vehicle, hip (Escherichia coli IMI2001 [3]; meropenem 40 mg/kg iv, 5 h): definite but insignificant decrease | log10 CFU Blood (Escherichia coli IMI2001 [4]; [8]): 2.48 log10 CFU and 1.70 log10 CFU and 2.95 log10 CFU | log10 CFU PF (Escherichia coli IMI2001 [4]; [8]): 3.92 log10 CFU and 1.70 log10 CFU and 2.30 log10 CFU | log10 CFU Average in PF (Escherichia coli IMI2001 [4]; [9]): 2.64 log10 CFU | log10 CFU Blood average (Escherichia coli IMI2001 [4]; Meropenem 40 mg/kg single iv, T = 5 h, p < 0.05 vs filler): 2.38 log10 CFU | Clinical Score T = 5 h (Escherichia coli IMI2001 [4]; [10]): 1 (2×) and 0 | CFU compared with excipient, blood (p<0.05) and peritoneal fluid (p<0.01) (Escherichia coli IMI2001 [4]; meropenem 40 mg/kg iv, 5 h): significant decrease

C[C@@H]1[C@H](O)[C@@H](C)/C=C/C=C/CC/C=C/C=C/C=C/C=C/C(O[C@H]2O[C@H](C)[C@@H](O)[C@H](N)[C@@H]2O)CC2O[C@](O)(CC(O)C(O)CCC(O)CC(O)CC(O)CC(=O)O[C@H]1C)CC(O)C2C(=O)O (stereo partly drawn) [nystatin]
antifungal activity [1]: did not exert antifungal activity
